Source: patent US10227315B2, “Mitochondrial uncouplers for treatment of metabolic diseases and cancer” (RUTGERS, THE STATE UNIVERSITY OF NEW JERSEY, priority 2016, dated 2019)

What was measured:
[1] = test system: mouse myoblast C2C12 cells; assay: Oxygen consumption rate (OCR) assay with Seahorse XF96 or XF24, mitochondrial uncoupling; format: cell-based; conditions: 10% fetal bovine serum, in the presence of oligomycin 2.5 μM, read-out: Cmin (minimal concentration to induce ATP synthase-independent OCR increase)
Text: By definition, mitochondrial uncoupling is the decoupling of mitochondrial electron transport chain activity (mitochondrial oxidation) from ATP synthesis by mitochondrial ATP synthase. Technically, mitochondrial uncoupling activity is defined by the ability of a chemical compound to induce oxygen consumption of cells or isolated mitochondria in the presence of a mitochondrial ATP synthase inhibitor such as oligomycin. Accordingly, we determined mitochondrial uncoupling activity by oxygen consumption rate (OCR) assay with a Seahorse XF96 or a Seahorse XF24 instrument following the vendor's instruction, using mouse myoblast C2C12 cells growing in medium containing 10% fetal bovine serum. […] The minimal concentration (Cmin) of each compound under which OCR is induced in the presence of oligomycin, was determined.

[2] = test system: NIH-3T3 cells, or HepG2 cells; assay: Mitochondrial membrane potential assay, TMRE staining; format: cell-based; conditions: 2 h; two hours treatment, TMRE 100 nM; read-out: EC50, mitochondrial membrane potential reduction (TMRE staining reduced to about 50%)
Protocol: Mitochondrial uncoupling may also lead to a reduction of mitochondrial membrane potential. We performed mitochondrial membrane potential assay using TMRE (tetramethylrhodamine ethyl ester) staining method with cultured mammalian cells, the NIH-3T3 cells, or HepG2 cells. Cells were seeded onto 6-well plates and cultured in DMEM medium supplemented with 10% fetal bovine serum and 2 mM glutamine. Cells were allowed to grow to logarithmic growth phase prior to experiments. The cells were treated with each individual compound at various concentrations for two hours, followed by staining with TMRE at final concentration of 100 nM for 15 minutes. The cells were then washed once with PBS, and examined under fluorescence microscopy. Cells treated with various concentrations of niclosamide ethanolamine were used as positive control. Reduction of mitochondrial TMRE staining was estimated as a quantification of mitochondrial uncoupling activity. […] The following table (Table II) summarizes the activity of individual compounds in reducing mitochondrial membrane potential in cultured mammalian cells.

[3] = test system: Human colon cancer HCT116 cell line and human lung cancer cell line H1299; assay: Cancer cell growth inhibition, NCI protocol, SRB staining; format: cell-based; conditions: 48 h incubation, HCT116 and H1299 cells, read-out: GI50, 50% growth inhibition activity
Protocol: The effect of example compounds on cancer cell growth was evaluated. The cell growth inhibition assays were performed using a protocol standardized by National Cancer Institute (NCI) for evaluating anti-cancer drugs (https://dtp.cancer.gov/discovery_development/nci-60/methodology.htm). Human colon cancer HCT116 cell line and human lung cancer cell line H1299 were used for the assays. The human tumor cells were inoculated into 96 well microtiter plates. After cell inoculation, the microtiter plates were incubated for cell growth for 24 h prior to addition of compounds. After 24 h, two plates of each cell line were fixed in situ with TCA, to represent a measurement of the cell population for each cell line at the time of compound addition (Tz). Test compounds were solubilized in dimethyl sulfoxide, At the time of test compound addition, five 10-fold or ½ log serial dilutions were made to provide a total of five test compound concentrations plus control. Aliquots of 100 μl of these different test compound dilutions were added to the appropriate microtiter wells already containing 100 μl of medium, resulting in the required final test compound concentrations. Following test compound addition, the plates were incubated for an additional 48 h. The assay was terminated by the addition of cold TCA, Cells were fixed in situ with 50 μl of cold 50% (w/v) TCA (final concentration, 10% TCA), washed five times with tap water and air dried. Sulforhodamine B (SRB) solution (100 ul) at 0.4% (w/v) in 1% acetic acid was added to each well, and plates were incubated for 10 minutes at room temperature. After staining, unbound dye was removed by washing five times with 1% acetic acid and the plates were air dried. […] Using the seven absorbance measurements [time zero, (Tz), control growth, (C), and test growth in the presence of compound at the five concentration levels (Ti)], the percentage growth was calculated at each of the test compound concentrations levels.

[4] = test system: mouse pancreatic cancer cell Panc 2 cells, or human pancreatic cancer Panc 1 cells; assay: Cell cycle progression (G0/G1 arrest), PI staining, flow cytometry; format: cell-based; conditions: 48 h treatment
Protocol: The effect of example compounds on cell cycle progression was analyzed. The tumor cells, mouse pancreatic cancer cell Panc 2 cells, or human pancreatic cancer Panc 1 cells, were treated with the individual compounds at concentrations that were efficacious for mitochondrial uncoupling for 48 h, whereas the control group was treated with vehicle DMSO. Cells were then fixed with ice-cold 70% ethanol on ice for 30 minutes. After that, 5 μl of propidium iodide (PI) (Sigma, P 4170, 1 mg/ml) solution and 50 μl of RNAse A (Sigma, R-4875) solutions were added to the fixed cells, which were then kept for 30 minutes in the dark at room temperature. The cell cycle profile of the cells was analyzed by flow cytometry. […] Table IV below summarizes the activity of other example compounds on inducing G0/G1 cell cycle arrest.

[5] = test system: Cancer cells; assay: Clonogenicity of cancer cells, colony counting; format: cell-based; conditions: 200 cells per well, 10 days
Protocol: The impact of example compounds on clonogenicity was analyzed. Cancer cells were plated in 6-well plates at 200 cells per well. Cells were treated with individual compounds at various concentrations. Cells were maintained with changes of the medium plus compounds for 10 days. The colonies were then fixed in 1:3 Acetic acid—Methanol solution for 5 minutes, stained with 0.02% crystal violet for 20 minutes and counted.

[6] = test system: HFD-induced diabetic mouse model; assay: High-fat diet (HFD)-induced fatty liver and diabetic mouse model; format: in vivo; conditions: HFD containing 600 ppm compound
Text: To test the efficacy of compounds in treating type 2 diabetes in vivo, we used Compound 28 as an example, and determined its effect in reducing blood glucose, reducing blood insulin concentration, improving insulin sensitivity and reducing fatty liver in a clinically relevant mouse model, the HFD-induced fatty liver and diabetic model. C57B6/J male mice were fed HFD (60% calorie from fat) for 4 months, starting at age of 2 months, to induce high blood glucose, high blood insulin, and insulin tolerance symptoms of type 2 diabetes as well as fatty liver. The mice then either continued with HFD or with HFD containing 600 ppm Compound 28. Blood glucose, blood insulin levels were measured and glucose tolerance assay was performed to measure insulin sensitivity. The mice were sacrificed and the effect of Compound 28 on fatty liver development was evaluated by comparing the liver weight.

[7] = test system: Panc 2 cells injected into the spleen of NOD-scid mice; assay: Hepatic metastasis of pancreatic cancer mouse model; format: in vivo; conditions: chow containing 750 ppm compound
Protocol: The in vivo anti-cancer efficacy of an example compound, Compound 28, was examined using a well-established hepatic metastasis of pancreatic cancer mouse model. The mouse pancreatic cancer cells, Panc 2 cells (0.25 million cells), were injected into the spleen of immune compromised NOD-scid mice. The mice were randomized to two groups (n=6 each group), one group was fed normal chow, the second group was fed chow containing 750 ppm Compound 28. Three weeks later, mice were sacrificed and the hepatic metastasis of the pancreatic cancer was observed (FIGS. 5A-5B) and quantified (FIGS. 6A-6B) in control and Compound 28 treated mice.

CC(C)c1cc(Cl)cc(C(=O)Nc2nc3ccc(C(F)(F)F)cc3s2)c1O [Compound 38, 5-Chloro-2-hydroxy-3-isopropyl-N-(6-(trifluoromethyl)benzo[d]thiazol-2-yl)benzamide]
minimal effective concentration [1]: < 10 µM | EC50 [2]: < 10 µM | GI50 [3]: < 10 µM | effective concentration that can arrest cell cycle at G0/G1 phase [4]: *** (*** <10 μM) | IC95, Concentration that reduces clonogenicity by 95% [5]: *** (*** <10 μM)

Cc1cc(Cl)cc(C(=O)Nc2nc3ccc(C(F)(F)F)cc3s2)c1O [Compound 1, 5-Chloro-2-hydroxy-3-methyl-N-(6-(trifluoromethyl)benzo[d]thiazol-2-yl)benzamide]
effective concentration that can arrest cell cycle at G0/G1 phase [4]: *** (*** <10 μM) | IC95, Concentration that reduces clonogenicity by 95% [5]: *** (*** <10 μM)

Cc1cc(Cl)cc(C(=O)Nc2nc3c(C(F)(F)F)cccc3s2)c1O [Compound 31, 5-Chloro-2-hydroxy-3-methyl-N-(4-(trifluoromethyl)benzo[d]thiazol-2-yl)benzamide]
minimal effective concentration [1]: < 10 µM | GI50 [3]: < 10 µM

O=C(Nc1nc2c(F)cc(F)cc2s1)c1cc(Cl)ccc1O [Compound 23, 5-Chloro-N-(4,6-difluorobenzo[d]thiazol-2-yl)-2-hydroxybenzamide]
minimal effective concentration [1]: < 10 µM | GI50 [3]: < 10 µM

Cc1cc(Cl)cc(C(=O)Nc2nc3ccc(C(F)(F)F)cc3s2)c1O [Compound 28, 5-Chloro-2-hydroxy-3-methyl-N-(6-(trifluoromethyl)benzo[d]thiazol-2-yl)benzamide ethanolamine]
minimal effective concentration [1]: < 10 µM | blood glucose concentration ([6]; C57B6/J male mice): markedly reduced | blood insulin concentration ([6]; C57B6/J male mice): markedly reduced | fatty liver weight caused by high fat diet ([6]; C57B6/J male mice): reduced fatty liver weight | insulin sensitivity ([6]; C57B6/J male mice): improves insulin sensitivity | plasma concentration [6]: at an efficacious concentration that uncouples mitochondria | GI50 [3]: < 10 µM | blood plasma concentrations [7]: in the range of efficacious concentration for uncoupling mitochondria | hepatic tumor metastasis ([7]; three weeks): little or no hepatic tumor metastasis | metastatic tumor volume ([7]; three weeks): dramatically reduced | number of metastatic tumor nodules ([7]; three weeks): dramatically reduced

CCc1cc(Cl)cc(C(=O)Nc2nc3ccc(C(F)(F)F)cc3s2)c1O [Compound 27, 5-Chloro-3-ethyl-2-hydroxy-N-(6-(trifluoromethyl)benzo[d]thiazol-2-yl)benzamide]
minimal effective concentration [1]: < 10 µM | EC50 [2]: < 10 µM | GI50 [3]: < 10 µM | effective concentration that can arrest cell cycle at G0/G1 phase [4]: *** (*** <10 μM) | IC95, Concentration that reduces clonogenicity by 95% [5]: *** (*** <10 μM)

Cc1cc(Cl)cc(C(=O)Nc2nc3c(F)cc(F)cc3s2)c1O [Compound 40, 5-Chloro-N-(4,6-difluorobenzo[d]thiazol-2-yl)-2-hydroxy-3-methylbenzamide]
minimal effective concentration [1]: < 10 µM | EC50 [2]: < 10 µM | GI50 [3]: < 10 µM

O=C(Nc1nc2c(C(F)(F)F)cc(F)cc2s1)c1cc(Cl)ccc1O [Compound 24, 5-Chloro-N-(6-fluoro-4-(trifluoromethyl)benzo[d]thiazol-2-yl)-2-hydroxybenzamide]
minimal effective concentration [1]: < 10 µM | EC50 [2]: < 10 µM | GI50 [3]: < 10 µM
